Activity calls are given as the source filed them. The rule behind the calls is not given here.
Legend:
Streptococcus pneumoniae = assay: Antibacterial activity against Streptococcus pneumoniae at 64 ug/ml after 20 hrs; assay type: functional, organism-based
[1] = biological target: T1, 3-oxoacyl-[acyl-carrier-protein] synthase 2 (Staphylococcus aureus) (UniProt Q5TKS0); assay: (§1) Inhibition of Staphylococcus aureus […] assessed as [2-14C]-malonyl CoA incorporation after 90 mins by cell free-based scintillation counting
T1 sequence (whole entry): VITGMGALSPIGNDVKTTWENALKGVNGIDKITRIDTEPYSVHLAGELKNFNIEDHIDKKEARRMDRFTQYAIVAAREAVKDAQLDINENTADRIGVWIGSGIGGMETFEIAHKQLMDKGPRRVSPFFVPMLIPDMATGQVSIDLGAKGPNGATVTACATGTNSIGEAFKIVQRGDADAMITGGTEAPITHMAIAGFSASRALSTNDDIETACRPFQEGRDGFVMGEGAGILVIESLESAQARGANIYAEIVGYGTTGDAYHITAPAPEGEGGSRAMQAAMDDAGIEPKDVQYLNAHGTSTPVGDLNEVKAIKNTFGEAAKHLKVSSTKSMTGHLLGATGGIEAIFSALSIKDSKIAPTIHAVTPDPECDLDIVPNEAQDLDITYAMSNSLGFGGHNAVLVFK

Staphylococcus aureus [2] = assay: Antibacterial activity against Staphylococcus aureus at 64 ug/ml after 20 hrs; assay type: functional, organism-based
Enterococcus faecalis = assay: Antibacterial activity against Enterococcus faecalis at 64 ug/ml after 20 hrs; assay type: functional, organism-based
Enterococcus faecium = assay: Antibacterial activity against Enterococcus faecium at 64 ug/ml after 20 hrs; assay type: functional, organism-based
Escherichia coli = assay: Antibacterial activity against Escherichia coli at 64 ug/ml after 20 hrs; assay type: functional, organism-based
Haemophilus influenzae = assay: Antibacterial activity against Haemophilus influenzae at 64 ug/ml after 20 hrs; assay type: functional, organism-based
Staphylococcus aureus [3] = assay: Antibacterial activity against Staphylococcus aureus RN450 expressing S1-1941 plasmid carrying antisense FabF2p RNA assessed as 5 mm differential zone clearance measured as minimum concentration after 18 hrs; assay type: functional
[4] = biological target: T2, 3-oxoacyl-[acyl-carrier-protein] synthase 2 (Staphylococcus aureus, UniProt Q5TKS0); assay: as §1
T2 sequence (Q5TKS0 whole entry): T1 sequence (whole entry)

inhibition [1]	IC50 [4] [µM]	SMILES	Activity (Streptococcus pneumoniae)	Activity (Staphylococcus aureus [2])	Activity (Enterococcus faecalis)	Activity (Enterococcus faecium)	Activity (Escherichia coli)	Activity (Haemophilus influenzae)	Activity (Staphylococcus aureus [3]) [µg/mL]
inactive	–	COC(=O)c1ccc(O)c(NC(=O)CC[C@]2(C)C(=O)C=CC34CC5CC(OC5(CO)C3)C42)c1O (stereo not given in full) [PLATENSIMYCIN A4 METHYL ESTER]	inactive	inactive	inactive	inactive	inactive	inactive	100
inactive	–	COCC(O)COc1ccc(C(C)(C)c2ccc(OCC(O)CO)cc2)cc1 (stereo not given)	inactive	inactive	inactive	inactive	inactive	inactive	–
inactive	–	COC(=O)CC[C@]1(C)C(=O)C=C[C@]23CC4C[C@H](O[C@]4(C)C2)C31 (stereo not given in full)	inactive	inactive	inactive	inactive	inactive	inactive	–
–	33.8	C[C@]12O[C@H]3CC1C[C@@]1(C=C(O)C(=O)[C@@](C)(CCC(=O)Nc4c(O)ccc(C(=O)O)c4O)C31)C2O (stereo not given in full)	inactive	inactive	inactive	inactive	inactive	inactive	<20

— ChEMBL document CHEMBL1773043, “Platensimycin and platencin congeners from Streptomyces platensis” (J Nat Prod, 2011)
